Tests used:
E. coli ATCC 25922 = test: MIC, NCCLS broth microdilution; format: cell-based, Escherichia coli; settings: G = E. coli ATCC 25922
Text: (§1) In vitro biological activity data were collected for a variety of microorganisms, including Staphylococcus aureus (ATCC 27660, a methicillin resistant strain (MRSA); ATCC 13709, a methicillin sensitive strain (MSSA)), Enterococcus faecalis (ATCC 29212), Bacillus cereus (ATCC 11778), Streptococcus pneumoniae (ATCC 49619), Candida albicans (ATCC 38247), Escherichia coli (ATCC 25922), and Moraxella (now Branhamella) catarrhalis (ATCC 25238).
(§2) The minimal inhibition concentration (MIC) of these compounds was determined using the National Committee for Clinical Laboratory Standards (NCCLS) broth microdilution assay in microtiter plates, as set forth in: (1) the guidelines of the National Committee for Clinical Laboratory Standards (NCCLS) Document M7-A4 (NCCLS, 1997); (2) the guidelines of the National Committee for Clinical Laboratory Standards (NCCLS) Document M11-A4 (NCCLS, 1997); and (3) the guidelines and reference method of the National Committee for Clinical Laboratory Standards (NCCLS) Document M27-T (NCCLS, 1995). For antifungal assays, the method recommended in Murray, P R., 1995 Manual of Clinical Microbiology (ASM Press, Washington, DC.), was employed.

[1] = system: M. catarrhalis (ATCC 25238); test: MIC, NCCLS broth microdilution; format: cell-based, Moraxella (now Branhamella) catarrhalis; settings: H = M. catarrhalis (ATCC 25238)
Text: as §1, §2

C. albicans ATCC 38247 = test: MIC, antifungal assay; format: cell-based, Candida albicans; settings: F = C. albicans ATCC 38247
Text: as §1, §2

S. pneumoniae ATCC 49619 = test: MIC, NCCLS broth microdilution; format: cell-based, Streptococcus pneumoniae; settings: E = S. pneumoniae ATCC 49619
Text: as §1, §2

S. aureus ATCC 27660 = test: MIC, NCCLS broth microdilution; format: cell-based, Staphylococcus aureus; settings: B = S. aureus ATCC 27660 (MRSA)
Text: as §1, §2

S. aureus ATCC 13709 = test: MIC, NCCLS broth microdilution; format: cell-based, Staphylococcus aureus; settings: A = S. aureus ATCC 13709 (MSSA)
Text: as §1, §2

E. faecalis ATCC 29212 = test: MIC, NCCLS broth microdilution; format: cell-based, Enterococcus faecalis; settings: C = E. faecalis ATCC 29212
Text: as §1, §2

B. cereus ATCC 11778 = test: MIC, NCCLS broth microdilution; format: cell-based, Bacillus cereus; settings: D = B. cereus ATCC 11778
Text: as §1, §2

SMILES	Minimum Inhibitory Concentration (MIC) (E. coli ATCC 25922)	Minimum Inhibitory Concentration (MIC) [1]	Minimum Inhibitory Concentration (MIC) (C. albicans ATCC 38247)	Minimum Inhibitory Concentration (MIC) (S. pneumoniae ATCC 49619)	Minimum Inhibitory Concentration (MIC) (S. aureus ATCC 27660)	Minimum Inhibitory Concentration (MIC) (S. aureus ATCC 13709)	Minimum Inhibitory Concentration (MIC) (E. faecalis ATCC 29212)	Minimum Inhibitory Concentration (MIC) (B. cereus ATCC 11778)
Cn1cc(NC(=O)c2cc3ccccc3cn2)cc1C(=O)Nc1ccc(C(=O)Nc2cn(C)c(C(=O)NCCN3CCCC(O)C3)n2)cc1 (racemic) [Compound A-69]	>32 µg/mL	+++ (MIC ≦ 4 μg/mL)	>32 µg/mL	+++ (MIC ≦ 4 μg/mL)	+++ (MIC ≦ 4 μg/mL)	+++ (MIC ≦ 4 μg/mL)	+++ (MIC ≦ 4 μg/mL)	+++ (MIC ≦ 4 μg/mL)
Cn1cc(NC(=O)c2sccc2Cl)cc1C(=O)Nc1ccc(C(=O)Nc2cn(C)c(C(=O)NCCN3CCC(O)CC3)n2)cc1 [Compound A-1]	>32 µg/mL	+ (12 ≦ MIC ≦ 32 μg/mL)	>32 µg/mL	+++ (MIC ≦ 4 μg/mL)	+++ (MIC ≦ 4 μg/mL)	+++ (MIC ≦ 4 μg/mL)	+++ (MIC ≦ 4 μg/mL)	+++ (MIC ≦ 4 μg/mL)
Cn1cc(NC(=O)c2sc3ccccc3c2Cl)cc1C(=O)Nc1ccc(C(=O)Nc2cn(C)c(C(=O)NCCN3CCC(O)CC3)n2)cc1 [Compound A-3]	>32 µg/mL	++ (4 < MIC < 12 μg/mL)	>32 µg/mL	+++ (MIC ≦ 4 μg/mL)	+++ (MIC ≦ 4 μg/mL)	+++ (MIC ≦ 4 μg/mL)	+++ (MIC ≦ 4 μg/mL)	+++ (MIC ≦ 4 μg/mL)
Cn1cc(NC(=O)c2ccc(Cl)cc2F)cc1C(=O)Nc1ccc(C(=O)Nc2cn(C)c(C(=O)NCCN3CCC(O)CC3)n2)cc1 [Compound A-4]	++ (4 < MIC < 12 μg/mL)	+++ (MIC ≦ 4 μg/mL)	+ (12 ≦ MIC ≦ 32 μg/mL)	+++ (MIC ≦ 4 μg/mL)	+++ (MIC ≦ 4 μg/mL)	+++ (MIC ≦ 4 μg/mL)	+++ (MIC ≦ 4 μg/mL)	+++ (MIC ≦ 4 μg/mL)
Cn1cc(NC(=O)c2nccc3ccccc23)cc1C(=O)Nc1ccc(C(=O)Nc2cn(C)c(C(=O)NCCN3CCC(O)CC3)n2)cc1 [Compound A-5]	>32 µg/mL	>32 µg/mL	>32 µg/mL	+++ (MIC ≦ 4 μg/mL)	+++ (MIC ≦ 4 μg/mL)	+++ (MIC ≦ 4 μg/mL)	+++ (MIC ≦ 4 μg/mL)	+++ (MIC ≦ 4 μg/mL)
Cn1cc(NC(=O)c2cc3cc4c(cc3cn2)OCO4)cc1C(=O)Nc1ccc(C(=O)Nc2cn(C)c(C(=O)NCCN3CCC(O)CC3)n2)cc1 [Compound A-6]	+ (12 ≦ MIC ≦ 32 μg/mL)	++ (4 < MIC < 12 μg/mL)	+ (12 ≦ MIC ≦ 32 μg/mL)	+++ (MIC ≦ 4 μg/mL)	+++ (MIC ≦ 4 μg/mL)	+++ (MIC ≦ 4 μg/mL)	+++ (MIC ≦ 4 μg/mL)	+++ (MIC ≦ 4 μg/mL)
Cn1cc(NC(=O)c2cc3ccccc3cn2)cc1C(=O)Nc1ccc(C(=O)Nc2cn(C)c(C(=O)NCCN3CCOCC3)n2)cc1 [Compound A-10]	>32 µg/mL	+++ (MIC ≦ 4 μg/mL)	>32 µg/mL	+++ (MIC ≦ 4 μg/mL)	+++ (MIC ≦ 4 μg/mL)	+++ (MIC ≦ 4 μg/mL)	+++ (MIC ≦ 4 μg/mL)	+++ (MIC ≦ 4 μg/mL)
Cn1cc(NC(=O)c2cc3ccccc3cn2)cc1C(=O)Nc1ccc(C(=O)Nc2cn(C)c(C(=O)NCCN3CCC(F)(F)CC3)n2)cc1 [Compound A-11]	>32 µg/mL	+++ (MIC ≦ 4 μg/mL)	>32 µg/mL	+++ (MIC ≦ 4 μg/mL)	+++ (MIC ≦ 4 μg/mL)	+++ (MIC ≦ 4 μg/mL)	+++ (MIC ≦ 4 μg/mL)	+++ (MIC ≦ 4 μg/mL)
CN1CCN(CCNC(=O)c2nc(NC(=O)c3ccc(NC(=O)c4cc(NC(=O)c5cc6ccccc6cn5)cn4C)cc3)cn2C)CC1 [Compound A-12]	>32 µg/mL	+++ (MIC ≦ 4 μg/mL)	>32 µg/mL	+++ (MIC ≦ 4 μg/mL)	+++ (MIC ≦ 4 μg/mL)	+++ (MIC ≦ 4 μg/mL)	+++ (MIC ≦ 4 μg/mL)	+++ (MIC ≦ 4 μg/mL)

Continued, values first:

Minimum Inhibitory Concentration (MIC) (E. coli ATCC 25922)	Minimum Inhibitory Concentration (MIC) [1]	Minimum Inhibitory Concentration (MIC) (C. albicans ATCC 38247)	Minimum Inhibitory Concentration (MIC) (S. pneumoniae ATCC 49619)	Minimum Inhibitory Concentration (MIC) (S. aureus ATCC 27660)	Minimum Inhibitory Concentration (MIC) (S. aureus ATCC 13709)	Minimum Inhibitory Concentration (MIC) (E. faecalis ATCC 29212)	Minimum Inhibitory Concentration (MIC) (B. cereus ATCC 11778)	SMILES
+++ (MIC ≦ 4 μg/mL)	+++ (MIC ≦ 4 μg/mL)	>32 µg/mL	+++ (MIC ≦ 4 μg/mL)	+++ (MIC ≦ 4 μg/mL)	+++ (MIC ≦ 4 μg/mL)	+++ (MIC ≦ 4 μg/mL)	+++ (MIC ≦ 4 μg/mL)	Cn1cc(NC(=O)c2cc3ccccc3cn2)cc1C(=O)Nc1ccc(C(=O)Nc2cn(C)c(C(=O)NCCN3CCC(O)C3)n2)cc1 (racemic) [Compound A-71]
>32 µg/mL	+ (12 ≦ MIC ≦ 32 μg/mL)	>32 µg/mL	+++ (MIC ≦ 4 μg/mL)	+++ (MIC ≦ 4 μg/mL)	+++ (MIC ≦ 4 μg/mL)	+++ (MIC ≦ 4 μg/mL)	+++ (MIC ≦ 4 μg/mL)	Cn1cc(NC(=O)c2cccc(F)n2)cc1C(=O)Nc1ccc(C(=O)Nc2cn(C)c(C(=O)NCCN3CCC(O)CC3)n2)cc1 [Compound A-2]
>32 µg/mL	+ (12 ≦ MIC ≦ 32 μg/mL)	>32 µg/mL	+++ (MIC ≦ 4 μg/mL)	+++ (MIC ≦ 4 μg/mL)	+++ (MIC ≦ 4 μg/mL)	+++ (MIC ≦ 4 μg/mL)	+++ (MIC ≦ 4 μg/mL)	Cn1cc(NC(=O)c2cc3c([N+](=O)[O-])cccc3cn2)cc1C(=O)Nc1ccc(C(=O)Nc2cn(C)c(C(=O)NCCN3CCC(O)CC3)n2)cc1 [Compound A-7]
++ (4 < MIC < 12 μg/mL)	++ (4 < MIC < 12 μg/mL)	++ (4 < MIC < 12 μg/mL)	+++ (MIC ≦ 4 μg/mL)	+++ (MIC ≦ 4 μg/mL)	+++ (MIC ≦ 4 μg/mL)	+++ (MIC ≦ 4 μg/mL)	+++ (MIC ≦ 4 μg/mL)	Cn1cc(NC(=O)c2cc3c(N)cccc3cn2)cc1C(=O)Nc1ccc(C(=O)Nc2cn(C)c(C(=O)NCCN3CCC(O)CC3)n2)cc1 [Compound A-8]
++ (4 < MIC < 12 μg/mL)	+ (12 ≦ MIC ≦ 32 μg/mL)	++ (4 < MIC < 12 μg/mL)	+++ (MIC ≦ 4 μg/mL)	+++ (MIC ≦ 4 μg/mL)	+++ (MIC ≦ 4 μg/mL)	+++ (MIC ≦ 4 μg/mL)	+++ (MIC ≦ 4 μg/mL)	Cn1cc(NC(=O)c2cc3c(Cl)cccc3cn2)cc1C(=O)Nc1ccc(C(=O)Nc2cn(C)c(C(=O)NCCN3CCC(O)CC3)n2)cc1 [Compound A-9]
